Values of other authors as cited in patent US9255156B2, “Immunogenic synthetic glycoconjugate for the immunotherapy of melanoma” (Azienda Ospedaliero-Universitaria Careggi, priority 2009, dated 2016).

GM3 lactone [GM3 lactone 2]
stability under physiological conditions / hydrolytic stability: unstable under physiological conditions
